Tests used:
Format in all cases: biochemical
human Lck enzyme = biological target: T1, human Lck enzyme (Homo sapiens, UniProt P06239); test: Lck enzyme inhibitory activity (time-resolved fluorometry, biotinylated peptide phosphorylation); conditions: read-out: LCK_IC50
T1 construct: purchased Carna Biosciences, Inc. 08-170
Method in brief: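 Readout pairs a europium cryptate-labelled anti-phosphotyrosine antibody with XL665-streptavidin, measured by time-resolved fluorescence. IC50 derived from percent inhibition against untreated controls.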

human Src enzyme = biological target: T2, human Src enzyme (Homo sapiens, UniProt P12931); test: Src enzyme inhibitory activity (time-resolved fluorometry, biotinylated peptide phosphorylation); conditions: read-out: SRC_IC50
T2 construct: purchased Carna Biosciences, Inc. 08-173
Method in brief: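 Compounds were tested for blocking tyrosine phosphorylation of a biotinylated peptide substrate by recombinant human Src. Phosphorylated product was quantified by time-resolved fluorometry using europium cryptate and XL665 conjugates, and IC50 was calculated against the compound-free control.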

human Yes1 enzyme = biological target: T3, human Yes1 enzyme (Homo sapiens, UniProt P07947); test: Yes1 enzyme inhibitory activity (time-resolved fluorometry, biotinylated peptide phosphorylation); conditions: read-out: YES_IC50
T3 construct: made in house
Method in brief: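 Inhibition was expressed against a compound-free control to give IC50, using TR-FRET read-out (Eu-cryptate anti-pTyr antibody, streptavidin-XL665).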

T2 sequence (P12931 whole entry): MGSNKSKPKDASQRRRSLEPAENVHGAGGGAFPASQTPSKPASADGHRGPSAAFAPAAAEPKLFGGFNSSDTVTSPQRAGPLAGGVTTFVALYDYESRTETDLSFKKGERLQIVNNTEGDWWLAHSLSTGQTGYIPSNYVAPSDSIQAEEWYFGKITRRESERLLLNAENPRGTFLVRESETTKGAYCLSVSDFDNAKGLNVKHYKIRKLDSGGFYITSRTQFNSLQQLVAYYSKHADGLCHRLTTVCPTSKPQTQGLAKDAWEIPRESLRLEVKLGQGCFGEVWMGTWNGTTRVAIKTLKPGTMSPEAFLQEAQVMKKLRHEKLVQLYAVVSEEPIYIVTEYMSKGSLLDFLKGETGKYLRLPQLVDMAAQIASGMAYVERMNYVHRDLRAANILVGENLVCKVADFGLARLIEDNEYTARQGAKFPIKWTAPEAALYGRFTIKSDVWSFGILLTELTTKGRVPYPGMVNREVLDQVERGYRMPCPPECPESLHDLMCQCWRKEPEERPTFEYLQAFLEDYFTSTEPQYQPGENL
T3 sequence (P07947 whole entry): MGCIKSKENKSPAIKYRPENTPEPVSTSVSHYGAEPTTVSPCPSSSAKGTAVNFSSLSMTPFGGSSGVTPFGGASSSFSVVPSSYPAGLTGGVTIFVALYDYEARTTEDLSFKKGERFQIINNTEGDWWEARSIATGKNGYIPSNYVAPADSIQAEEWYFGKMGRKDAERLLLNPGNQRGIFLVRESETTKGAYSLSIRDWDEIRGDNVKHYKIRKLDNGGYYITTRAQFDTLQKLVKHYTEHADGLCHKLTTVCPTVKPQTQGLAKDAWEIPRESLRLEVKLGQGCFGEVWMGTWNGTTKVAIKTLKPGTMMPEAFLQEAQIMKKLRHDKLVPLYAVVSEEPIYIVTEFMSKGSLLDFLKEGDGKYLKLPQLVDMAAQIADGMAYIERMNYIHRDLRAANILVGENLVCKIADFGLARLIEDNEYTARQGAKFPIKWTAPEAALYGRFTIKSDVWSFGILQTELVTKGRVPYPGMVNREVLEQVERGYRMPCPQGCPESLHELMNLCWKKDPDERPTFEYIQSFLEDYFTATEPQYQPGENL
T1 sequence (P06239 whole entry): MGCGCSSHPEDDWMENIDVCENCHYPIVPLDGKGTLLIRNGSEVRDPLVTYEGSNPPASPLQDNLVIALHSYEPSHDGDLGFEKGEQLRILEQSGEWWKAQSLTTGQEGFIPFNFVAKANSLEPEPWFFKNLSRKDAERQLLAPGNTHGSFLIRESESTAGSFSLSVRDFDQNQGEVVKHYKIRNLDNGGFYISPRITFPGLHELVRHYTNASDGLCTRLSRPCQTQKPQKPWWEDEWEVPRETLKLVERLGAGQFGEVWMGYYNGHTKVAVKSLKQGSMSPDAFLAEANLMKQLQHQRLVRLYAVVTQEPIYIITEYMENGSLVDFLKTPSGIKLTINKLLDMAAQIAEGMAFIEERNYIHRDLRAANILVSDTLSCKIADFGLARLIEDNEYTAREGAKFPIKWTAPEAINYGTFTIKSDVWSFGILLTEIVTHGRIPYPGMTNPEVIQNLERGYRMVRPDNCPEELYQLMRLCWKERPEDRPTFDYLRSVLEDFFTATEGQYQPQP

IC50 (human Lck enzyme)	IC50 (human Src enzyme)	IC50 (human Yes1 enzyme)	SMILES
82 nM	320 nM	60 nM	Cc1cc(Oc2ccccc2Cl)nc(C)c1-n1ncc(C(=O)c2cc3cc(F)c(NS(C)(=O)=O)cc3[nH]2)c1N [Example 5-1-051, N-[2-[5-amino-1-[6-(2-chlorophenoxy)-2,4-dimethylpyridin-3-yl]pyrazole-4-carbonyl]-5-fluoro-1H-indol-6-yl]methanesulfonamide]
250 nM	810 nM	120 nM	Cc1cc(Oc2cccc(Cl)c2)nc(C)c1-n1ncc(C(=O)c2cc3cc(F)c(NS(C)(=O)=O)cc3[nH]2)c1N [Example 5-1-052, N-[2-[5-amino-1-[6-(3-chlorophenoxy)-2,4-dimethylpyridin-3-yl]pyrazole-4-carbonyl]-5-fluoro-1H-indol-6-yl]methanesulfonamide]
97 nM	430 nM	65 nM	Cc1cc(Oc2cccc(F)c2F)nc(C)c1-n1ncc(C(=O)c2cc3cc(F)c(NS(C)(=O)=O)cc3[nH]2)c1N [Example 5-1-053, N-[2-[5-amino-1-[6-(2,3-difluorophenoxy)-2,4-dimethylpyridin-3-yl]pyrazole-4-carbonyl]-5-fluoro-1H-indol-6-yl]methanesulfonamide]
350 nM	1000 nM	150 nM	Cc1cc(Oc2cc(F)cc(F)c2)nc(C)c1-n1ncc(C(=O)c2cc3cc(F)c(NS(C)(=O)=O)cc3[nH]2)c1N [Example 5-1-054, N-[2-[5-amino-1-[6-(3,5-difluorophenoxy)-2,4-dimethylpyridin-3-yl]pyrazole-4-carbonyl]-5-fluoro-1H-indol-6-yl]methanesulfonamide]
94 nM	190 nM	16 nM	Cc1cc(Oc2cc(Cl)ccc2Cl)ncc1-n1ncc(C(=O)c2cc3cc(F)c(NS(C)(=O)=O)cc3[nH]2)c1N [Example 5-1-055, N-[2-[5-amino-1-[6-(2,5-dichlorophenoxy)-4-methylpyridin-3-yl]pyrazole-4-carbonyl]-5-fluoro-1H-indol-6-yl]methanesulfonamide]
24 nM	76 nM	1.7 nM	Cc1cc(Oc2ccccc2F)ncc1-n1ncc(C(=O)c2cc3cc(F)c(NS(=O)(=O)CC(=O)NC(C)C)cc3[nH]2)c1N [Example 5-1-056, 2-[[2-[5-amino-1-[6-(2-fluorophenoxy)-4-methylpyridin-3-yl]pyrazole-4-carbonyl]-5-fluoro-1H-indol-6-yl]sulfamoyl]-N-propan-2-ylacetamide]
31 nM	150 nM	2 nM	Cc1cc2cc(C(=O)c3cnn(-c4cnc(Oc5ccccc5F)cc4C)c3N)[nH]c2cc1NS(=O)(=O)NC1CCOCC1 [Example 5-1-057, [5-amino-1-[6-(2-fluorophenoxy)-4-methylpyridin-3-yl]pyrazol-4-yl]-[5-methyl-6-(oxan-4-ylsulfamoylamino)-1H-indol-2-yl] methanone]
25 nM	58 nM	1.6 nM	Cc1cc2cc(C(=O)c3cnn(-c4cnc(Oc5ccccc5F)cc4C)c3N)[nH]c2cc1NS(=O)(=O)CC(=O)NC(C)C [Example 5-1-058, 2-[[2-[5-amino-1-[6-(2-fluorophenoxy)-4-methylpyridin-3-yl]pyrazole-4-carbonyl]-5-methyl-1H-indol-6-yl]sulfamoyl]-N-propan-2-ylacetamide]
33 nM	130 nM	3.4 nM	Cc1cc(Oc2cccc(F)c2)ncc1-n1ncc(C(=O)c2cc3cc(F)c(NS(=O)(=O)CCCF)cc3[nH]2)c1N [Example 5-1-059, N-[2-[5-amino-1-[6-(3-fluorophenoxy)-4-methylpyridin-3-yl]pyrazole-4-carbonyl]-5-fluoro-1H-indol-6-yl]-3-fluoropropane-1-sulfonamide]
42 nM	390 nM	82 nM	Cc1cc(Oc2ccccc2F)nc(C)c1-n1ncc(C(=O)c2cc3cc(F)c(NS(C)(=O)=O)cc3[nH]2)c1N [Example 5-1-060, N-[2-[5-amino-1-[6-(2-fluorophenoxy)-2,4-dimethylpyridin-3-yl]pyrazole-4-carbonyl]-5-fluoro-1H-indol-6-yl]methanesulfonamide]

The remaining lines, values behind:

SMILES	IC50 (human Lck enzyme)	IC50 (human Src enzyme)	IC50 (human Yes1 enzyme)
Cc1cc(Oc2cc(F)cc(F)c2)ncc1-n1ncc(C(=O)c2cc3cc(F)c(NS(C)(=O)=O)cc3[nH]2)c1N [Example 5-1-038, N-[2-[5-amino-1-[6-(3,5-difluorophenoxy)-4-methylpyridin-3-yl]pyrazole-4-carbonyl]-5-fluoro-1H-indol-6-yl]methanesulfonamide]	66 nM	270 nM	16 nM
Cc1cc(-n2ncc(C(=O)c3cc4cc(F)c(NS(C)(=O)=O)cc4[nH]3)c2N)cnc1Oc1ccccc1F [Example 5-1-039, N-[2-[5-amino-1-[6-(2-fluorophenoxy)-5-methylpyridin-3-yl]pyrazole-4-carbonyl]-5-fluoro-1H-indol-6-yl]methanesulfonamide]	2000 nM	6100 nM	120 nM
Cc1cc(Oc2ccccc2F)cc(C)c1-n1ncc(C(=O)c2cc3cc(F)c(NS(=O)(=O)CCCF)cc3[nH]2)c1N [Example 5-1-040, N-[2-[5-amino-1-[4-(2-fluorophenoxy)-2,6-dimethylphenyl]pyrazole-4-carbonyl]-5-fluoro-1H-indol-6-yl]-3-fluoropropane-1-sulfonamide]	88 nM	280 nM	13 nM
Cc1cc(Oc2ccc(F)cc2)ncc1-n1ncc(C(=O)c2cc3cc(F)c(NS(=O)(=O)C4CC4)cc3[nH]2)c1N [Example 5-1-046, N-[2-[5-amino-1-[6-(4-fluorophenoxy)-4-methylpyridin-3-yl]pyrazole-4-carbonyl]-5-fluoro-1H-indol-6-yl]cyclopropanesulfonamide]	110 nM	160 nM	7.9 nM
Cc1ccccc1Oc1cc(C)c(-n2ncc(C(=O)c3cc4cc(NS(C)(=O)=O)c(F)cc4[nH]3)c2N)cn1 [Example 5-1-047, N-[2-[5-amino-1-[4-methyl-6-(2-methylphenoxy)pyridin-3-yl]pyrazole-4-carbonyl]-6-fluoro-1H-indol-5-yl] methanesulfonamide]	5.1 nM	15 nM	0.87 nM
Cc1cc(Oc2cccc(Cl)c2)cc(F)c1-n1ncc(C(=O)c2cc3cc(NS(C)(=O)=O)c(F)cc3[nH]2)c1N [Example 5-1-048, N-[2-[5-amino-1-[4-(3-chlorophenoxy)-2-fluoro-6-methylphenyl]pyrazole-4-carbonyl]-6-fluoro-1H-indol-5-yl]methanesulfonamide]	6.4 nM	110 nM	1.6 nM
Cc1cc(Oc2cccc(F)c2F)ncc1-n1ncc(C(=O)c2cc3cc(NS(C)(=O)=O)c(F)cc3[nH]2)c1N [Example 5-1-049, N-[2-[5-amino-1-[6-(2,3-difluorophenoxy)-4-methylpyridin-3-yl]pyrazole-4-carbonyl]-6-fluoro-1H-indol-5-yl]methanesulfonamide]	3.9 nM	70 nM	1.5 nM
Cc1cc(Oc2ccccc2Cl)ncc1-n1ncc(C(=O)c2cc3cc(NS(C)(=O)=O)c(F)cc3[nH]2)c1N [Example 5-1-050, N-[2-[5-amino-1-[6-(2-chlorophenoxy)-4-methylpyridin-3-yl]pyrazole-4-carbonyl]-6-fluoro-1H-indol-5-yl]methanesulfonamide]	1.8 nM	23 nM	0.77 nM

From US10479780B2, “Aminopyrazole derivatives” (Chugai Seiyaku Kabushiki Kaisha, priority 2015, dated 2019)
